# Laboratory results from patent publication US9567339B2, “Primary carboxamides as BTK inhibitors” (AbbVie Inc., priority 2013, dated 2017).
# Target: BTK, recombinant human catalytic domain (aa 393-659) (Homo sapiens (Human), UniProt Q06187)
# Test: In vitro BTK kinase activity measured by time-resolved fluorescence resonance energy transfer (trFRET)
# Format: biochemical
# Settings: read-out: Btk IC50
# Sequence of BTK, recombinant human catalytic domain (aa 393-659) (Q06187 393-659): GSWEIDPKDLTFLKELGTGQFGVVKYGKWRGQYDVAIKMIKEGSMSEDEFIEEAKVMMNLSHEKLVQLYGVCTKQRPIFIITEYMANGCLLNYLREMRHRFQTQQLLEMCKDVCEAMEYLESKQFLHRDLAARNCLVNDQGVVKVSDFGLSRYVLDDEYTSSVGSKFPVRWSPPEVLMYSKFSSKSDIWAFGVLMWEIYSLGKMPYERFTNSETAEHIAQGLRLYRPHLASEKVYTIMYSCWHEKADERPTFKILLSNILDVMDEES
row,IC50,SMILES
1,< 100 nM,C/C=C(/C)C(=O)Nc1cccc(-c2ccc(C(N)=O)c3[nH]c(C4=CCN(S(C)(=O)=O)CC4)cc23)c1C [D.7.1]
2,< 100 nM,Cc1c(NC(=O)/C=C/CN(C)C)cccc1-c1ccc(C(N)=O)c2[nH]c(C3=CCN(S(C)(=O)=O)CC3)cc12 [D.7.2]
3,100 to 1000 nM,Cc1c(NC(=O)CCN2CCCCC2)cccc1-c1ccc(C(N)=O)c2[nH]c(C3=CCN(S(C)(=O)=O)CC3)cc12 [D.7.3]
4,< 100 nM,Cc1c(NC(=O)CC#N)cccc1-c1ccc(C(N)=O)c2[nH]c(C3=CCN(S(C)(=O)=O)CC3)cc12 [D.7.4]
5,< 100 nM,C=C(C)C(=O)Nc1cccc(-c2ccc(C(N)=O)c3[nH]c(C4=CCN(S(C)(=O)=O)CC4)cc23)c1C [D.7.5]
6,< 100 nM,C=CC(=O)Nc1cccc(-c2ccc(C(N)=O)c3[nH]c(C4=CCN(S(C)(=O)=O)CC4)cc23)c1C [D.7.6]
7,< 100 nM,Cc1c(NC(=O)C(F)(F)Cl)cccc1-c1ccc(C(N)=O)c2[nH]c(C3=CCN(S(C)(=O)=O)CC3)cc12 [D.7.7]
8,< 100 nM,Cc1c(NC(=O)C(C)Cl)cccc1-c1ccc(C(N)=O)c2[nH]c(C3=CCN(S(C)(=O)=O)CC3)cc12 (stereo not shown) [D.7.8]
9,< 100 nM,C/C=C/C(=O)Nc1cccc(-c2ccc(C(N)=O)c3[nH]c(C4=CCN(S(C)(=O)=O)CC4)cc23)c1C [D.7.9]
10,< 100 nM,Cc1c(NC(=O)/C=C\C(N)=O)cccc1-c1ccc(C(N)=O)c2[nH]c(C3=CCN(S(C)(=O)=O)CC3)cc12 [D.7.10]
11,< 100 nM,Cc1c(NC(=O)COc2ccc(F)cc2)cccc1-c1ccc(C(N)=O)c2[nH]c(C3=CCN(S(C)(=O)=O)CC3)cc12 [D.7.11]
12,< 100 nM,Cc1c(NC(=O)CCN2CCCC2)cccc1-c1ccc(C(N)=O)c2[nH]c(C3=CCN(S(C)(=O)=O)CC3)cc12 [D.7.12]
13,< 100 nM,Cc1c(NC(=O)COc2ccc(C#N)cc2)cccc1-c1ccc(C(N)=O)c2[nH]c(C3=CCN(S(C)(=O)=O)CC3)cc12 [D.7.13]
14,< 100 nM,Cc1c(NC(=O)COc2cccnc2)cccc1-c1ccc(C(N)=O)c2[nH]c(C3=CCN(S(C)(=O)=O)CC3)cc12 [D.7.14]
15,< 100 nM,Cc1c(NC(=O)C2=CCCC2)cccc1-c1ccc(C(N)=O)c2[nH]c(C3=CCN(S(C)(=O)=O)CC3)cc12 [D.7.15]

# Same assay, conditions: trFRET, 0.001 mM ATP, biotin-TYR1 peptide substrate; read-out: Btk IC50
row,SMILES,IC50
1,Cc1c(NC(=O)c2nccs2)cccc1-c1ccc(C(N)=O)c2[nH]c(-c3ccccc3CNC(=O)CCN3CCCCC3)cc12 [D.1.5],1000 to 10000 nM
2,Cc1c(NC(=O)c2nccs2)cccc1-c1ccc(C(N)=O)c2[nH]c(-c3ccccc3CNC(=O)COc3ccccc3)cc12 [D.1.6],1000 to 10000 nM
3,Cc1c(NC(=O)c2nccs2)cccc1-c1ccc(C(N)=O)c2[nH]c(-c3ccccc3CNC(=O)COc3ccc(F)cc3)cc12 [D.1.7],1000 to 10000 nM
4,CCCC(=O)NCc1ccccc1-c1cc2c(-c3cccc(NC(=O)c4nccs4)c3C)ccc(C(N)=O)c2[nH]1 [D.1.8],1000 to 10000 nM
5,C/C=C/C(=O)NCc1ccccc1-c1cc2c(-c3cccc(NC(=O)c4nccs4)c3C)ccc(C(N)=O)c2[nH]1 [D.1.9],1000 to 10000 nM
6,C=C(C)C(=O)NCc1ccccc1-c1cc2c(-c3cccc(NC(=O)c4nccs4)c3C)ccc(C(N)=O)c2[nH]1 [D.1.10],1000 to 10000 nM
7,NC(=O)c1ccc(-c2ccccc2NC(=O)Cn2sc3ccccc3c2=O)c2cc[nH]c12 [D.2.1],1000 to 10000 nM
8,Cc1c(NC(=O)c2nccs2)cccc1-c1ccc(C(N)=O)c2[nH]cc(NC(=O)CC#N)c12 [D.3.1],1000 to 10000 nM
9,C=CC(=O)Nc1c[nH]c2c(C(N)=O)ccc(-c3cccc(NC(=O)c4nccs4)c3C)c12 [D.3.2],1000 to 10000 nM
10,C/C=C/C(=O)Nc1c[nH]c2c(C(N)=O)ccc(-c3cccc(NC(=O)c4nccs4)c3C)c12 [D.3.3],1000 to 10000 nM
11,C=C(C)C(=O)Nc1c[nH]c2c(C(N)=O)ccc(-c3cccc(NC(=O)c4nccs4)c3C)c12 [D.3.4],1000 to 10000 nM
12,CC#CC(=O)Nc1c[nH]c2c(C(N)=O)ccc(-c3cccc(NC(=O)c4nccs4)c3C)c12 [D.3.5],1000 to 10000 nM
13,Cc1c(NC(=O)c2nccs2)cccc1-c1ccc(C(N)=O)c2[nH]cc(NC(=O)COc3ccc(F)cc3)c12 [D.3.6],1000 to 10000 nM
14,CNC(=O)/C=C/C(=O)Nc1cccc(-c2ccc(C(N)=O)c3[nH]ccc23)c1 [D.4.1],1000 to 10000 nM
15,CN(C)C(=O)/C=C/C(=O)Nc1cccc(-c2ccc(C(N)=O)c3[nH]ccc23)c1 [D.4.2],1000 to 10000 nM
16,CCNC(=O)/C=C/C(=O)Nc1cccc(-c2ccc(C(N)=O)c3[nH]ccc23)c1 [D.4.3],1000 to 10000 nM
17,NC(=O)c1ccc(-c2cccc(NC(=O)/C=C/C(=O)NC3CC3)c2)c2cc[nH]c12 [D.4.4],1000 to 10000 nM

# More lines, now with the values ahead:
row,IC50,SMILES
1,< 100 nM,Cc1c(NC(=O)c2nccs2)cccc1-c1ccc(C(N)=O)c2[nH]c(-c3cccnc3)cc12 [A.7.8]
2,100 to 1000 nM,Cc1ccc(-c2cc3c(-c4ccn[nH]4)ccc(C(N)=O)c3[nH]2)cc1 [A.8.1]
3,100 to 1000 nM,Cc1ccc(-c2cc3c(-c4c(C)noc4C)ccc(C(N)=O)c3[nH]2)cc1 [A.8.2]
4,100 to 1000 nM,Cc1ccc(-c2cc3c(-c4cccnc4)ccc(C(N)=O)c3[nH]2)cc1 [A.8.3]
5,100 to 1000 nM,Cc1ccc(-c2cc3c(-c4ccncc4)ccc(C(N)=O)c3[nH]2)cc1 [A.8.4]
6,100 to 1000 nM,CC(=O)c1ccc(-c2ccc(C(N)=O)c3[nH]c(-c4ccc(C)cc4)cc23)s1 [A.8.5]
7,100 to 1000 nM,Cc1ccc(-c2cc3c(-c4ccsc4)ccc(C(N)=O)c3[nH]2)cc1 [A.8.6]
8,100 to 1000 nM,Cc1ccc(-c2cc3c(-c4cnn(C)c4)ccc(C(N)=O)c3[nH]2)cc1 [A.8.7]
9,100 to 1000 nM,Cc1ccc(-c2cc3c(-c4ccn[nH]4)ccc(C(N)=O)c3[nH]2)cc1 [A.8.8]
10,100 to 1000 nM,Cc1ccc(-c2cc3c(-c4cccs4)ccc(C(N)=O)c3[nH]2)cc1 [A.8.9]
11,100 to 1000 nM,Cc1ccc(-c2cc3c(-c4ccsc4)ccc(C(N)=O)c3[nH]2)cc1 [A.8.10]
12,100 to 1000 nM,NC(=O)c1ccc(-c2cncnc2)c2cc(-c3ccc(F)cc3)[nH]c12 [A.9.1]
13,< 100 nM,NC(=O)c1ccc(-c2cccnc2)c2cc(-c3ccc(F)cc3)[nH]c12 [A.9.2]
14,100 to 1000 nM,Cc1noc(C)c1-c1ccc(C(N)=O)c2[nH]c(-c3ccc(F)cc3)cc12 [A.9.3]
15,100 to 1000 nM,NC(=O)c1ccc(-c2ccncc2)c2cc(-c3ccc(F)cc3)[nH]c12 [A.9.4]
16,100 to 1000 nM,NC(=O)c1ccc(-c2ccn[nH]2)c2cc(-c3ccc(F)cc3)[nH]c12 [A.9.5]
17,< 100 nM,Cc1c(-c2ccc(C(N)=O)c3[nH]c(-c4ccc(F)cc4)cc23)cccc1N1Cc2ccc(F)cc2C1=O [A.9.6]
18,1000 to 10000 nM,Cc1c(NC(=O)c2cc3c(s2)CCCC3)cccc1-c1ccc(C(N)=O)c2[nH]c(-c3ccc(F)cc3)cc12 [A.9.7]
19,< 100 nM,Cc1c(-c2ccc(C(N)=O)c3[nH]c(-c4cnn(C)c4)cc23)cccc1-n1cnc2ccccc2c1=O [A.10.1]
20,< 100 nM,Cc1c(-c2ccc(C(N)=O)c3[nH]c(-c4cnn(C)c4)cc23)cccc1-n1cnc2ccc(F)cc2c1=O [A.10.2]
21,< 100 nM,"Cc1c(-c2ccc(C(N)=O)c3[nH]c(-c4cnn(C)c4)cc23)cccc1N(C(=O)c1nccs1)C1COC1 [A.10.3, N-(3-(7-carbamoyl-2-(1-methyl-1H-pyrazol-4-yl)-1H-indol-4-yl)-2-methylphenyl)-N-(oxetan-3-yl)thiazole-2-carboxamide]"

row,IC50,SMILES
1,< 100 nM,Cc1c(NC(=O)c2cc3c(s2)CCCC3)cccc1-c1ccc(C(N)=O)c2[nH]c(-c3cnn(C)c3)cc12 [A.10.5]
2,< 100 nM,Cc1c(-c2ccc(C(N)=O)c3[nH]c(C4=CCOCC4)cc23)cccc1-n1cnc2ccccc2c1=O [A.11.1]
3,< 100 nM,Cc1c(-c2ccc(C(N)=O)c3[nH]c(C4=CCOCC4)cc23)cccc1-n1cnc2ccc(F)cc2c1=O [A.11.2]
4,< 100 nM,Cc1c(-c2ccc(C(N)=O)c3[nH]c(-c4ccc(F)cc4)cc23)cccc1-n1cnc2ccccc2c1=O [A.12.1]
5,100 to 1000 nM,Cc1c(-c2ccc(C(N)=O)c3[nH]c(-c4cncnc4)cc23)cccc1-n1cnc2ccccc2c1=O [A.13.1]
6,100 to 1000 nM,Cc1c(-c2ccc(C(N)=O)c3[nH]c(-c4cncnc4)cc23)cccc1-n1cnc2ccc(F)cc2c1=O [A.13.2]
7,100 to 1000 nM,Cc1c(NC(=O)c2ccc(C(F)F)cc2)cccc1-c1ccc(C(N)=O)c2[nH]c(-c3cncnc3)cc12 [A.13.3]
8,100 to 1000 nM,Cc1c(NC(=O)c2ccc(C3CC3)cc2)cccc1-c1ccc(C(N)=O)c2[nH]c(-c3cncnc3)cc12 [A.13.4]
9,< 100 nM,Cc1c(-c2ccc(C(N)=O)c3[nH]c(-c4cnn(CC(C)(C)O)c4)cc23)cccc1-n1cnc2ccc(F)cc2c1=O [A.14.1]
10,< 100 nM,Cn1cc(-c2cc3c(-c4cccc(-n5ccc6cc(C7CC7)cc(F)c6c5=O)c4CO)ccc(C(N)=O)c3[nH]2)cn1 [A.15.1]
11,1000 to 10000 nM,"NC(=O)c1ccc(-c2cccc(NC(=O)/C=C/C(=O)O)c2)c2cc[nH]c12 [C.1, (E)-4-((3-(7-Carbamoyl-1H-indol-4-yl)phenyl)amino)-4-oxobut-2-enoic acid]"
12,< 100 nM,"COC(=O)/C=C/C(=O)Nc1cccc(-c2ccc(C(N)=O)c3[nH]ccc23)c1 [D.1, (E)-Methyl 4-((3-(7-carbamoyl-1H-indol-4-yl)phenyl)amino)-4-oxobut-2-enoate]"
13,1000 to 10000 nM,CC#CC(=O)NCc1ccccc1-c1cc2c(-c3cccc(NC(=O)c4nccs4)c3C)ccc(C(N)=O)c2[nH]1 [D.1.1]
14,1000 to 10000 nM,C=CC(=O)NCc1ccccc1-c1cc2c(-c3cccc(NC(=O)c4nccs4)c3C)ccc(C(N)=O)c2[nH]1 [D.1.2]
15,100 to 1000 nM,Cc1c(NC(=O)c2nccs2)cccc1-c1ccc(C(N)=O)c2[nH]c(-c3ccccc3CNC(=O)CC#N)cc12 [D.1.3]
16,100 to 1000 nM,Cc1c(NC(=O)c2nccs2)cccc1-c1ccc(C(N)=O)c2[nH]c(-c3ccccc3CNC(=O)CCN(C)C)cc12 [D.1.4]
17,100 to 1000 nM,C#CC(=O)NCc1ccccc1-c1cc2c(-c3cccc(NC(=O)c4nccs4)c3C)ccc(C(N)=O)c2[nH]1 [D.1.11]
18,100 to 1000 nM,CC(=O)N1CCC(c2cc3c(-c4cccc(NC(=O)c5ccc(C6CC6)cc5)c4C)ccc(C(N)=O)c3[nH]2)CC1 [D.5.1]
19,< 100 nM,C=C(CN(C)C)C(=O)Nc1cccc(-c2ccc(C(N)=O)c3[nH]ccc23)c1 [D.6.1]
20,< 100 nM,C=C(CN1CCOCC1)C(=O)Nc1cccc(-c2ccc(C(N)=O)c3[nH]ccc23)c1 [D.6.2]
